In brackets after ≈: the same amount, converted by molar mass.
Experiments:
[1] = Lyophilisation solubility assay (LYSA); type: physicochemical; details: 0.05 M phosphate buffer, HPLC-UV; for solubility thermodynamic: phosphate buffer, pH 6.5, aqueous buffer, thermodynamic from solid
Experimental: Lyophilisation Solubility Assay (LYSA):
The solubility of compounds of present invention was assessed by LYSA assay. Samples were prepared in duplicate from 10 mM DMSO stock solutions (20 μL) diluted in 30 μL pure DMSO. After evaporation of DMSO with a centrifugal vacuum evaporator, the residue was dissolved in 0.05 M phosphate buffer (150 μL, pH 6.5), which was stirred for one hour and shook for two hours. After one night, the solution was filtered using a microtiter filter plate. Then the filtrate and its 1/10 dilution were analyzed by HPLC-UV.

[2] = test system: K. pneumoniae (ATCC10031); experiment: 50% growth inhibitory concentration (IC50) determination assay; type: cell-based; details: Klebsiella pneumoniae, Iso-Sensitest broth, 0.098 = detection limit
Procedure, shortened: (§1)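 Broth microdilution in Iso-Sensitest medium, ~5×10^5 CFU/mL inoculum, compound 50–0.097 μM final (two-fold series), 35±2° C; OD600 read every 20 min over 16 h.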

A. baumannii (ATCC17978) = experiment: as above; type: cell-based; details: Iso-Sensitest broth, 0.098 = detection limit
Procedure, shortened: as §1

S. aureus (ATCC29213) = experiment: as above; type: cell-based; details: Staphylococcus aureus, Iso-Sensitest broth, 0.098 = detection limit
Procedure, shortened: as §1

[3] = Acinetobacter baumannii, ATCC17978, A. baumannii ATCC17978

solubility thermodynamic [1] [µg/mL]	IC50 [2] [µM]	IC50 (A. baumannii (ATCC17978); [3]) [µM]	IC50 (S. aureus (ATCC29213)) [µM]	Lysa ([1]; pH 6.5) [µg/mL]	IC50 (A. baumannii (ATCC17978); A. baumannii ATCC17978) [µM]	SMILES
71 (≈ 128 µM)	< 0.098	0.074	< 0.098			CNc1cc(F)cc2c1[nH]c1ncc(-c3cnc4c(c3)c(=O)c(C(=O)O)cn4C)c(N3CC4[C@H](CCCN4C)C3)c12 (stereo partly shown) [Example 1.110]
48 (≈ 77.3 µM)	< 0.098	0.696	< 0.098			CCNc1cc(C(F)(F)F)cc2c1[nH]c1ncc(-c3cnc4c(c3)c(=O)c(C(=O)O)cn4NC)c(N3CC[C@H]4CN(C)CC43)c12 (stereo partly shown) [Example 1.123]
241 (≈ 408 µM)	< 0.098	0.066	< 0.098			CNc1cc(Cl)c(F)c2c1[nH]c1ncc(-c3cnc4c(c3)c(=O)c(C(=O)O)cn4NC)c(N3CC[C@H]4CN(C)CC43)c12 (stereo partly shown) [Example 1.266]
17 (≈ 29.5 µM)	< 0.098	< 0.098	< 0.098			CCNn1cc(C(=O)O)c(=O)c2cc(-c3cnc4[nH]c5c(NC)cc(F)c(F)c5c4c3N3CC[C@@H](N(C)C)C3)cnc21 [Example 1.258]
472 (≈ 838 µM)	< 0.098	0.298	< 0.098			CNc1cc(F)c(F)c2c1[nH]c1ncc(-c3cnc4c(c3)c(=O)c(C(=O)O)cn4C)c(N3C[C@@H](O)[C@@H](N(C)C)C3)c12 [Example 1.223]
277 (≈ 459 µM)	< 0.098	0.558	< 0.098			CNc1cc(F)c(F)c2c1[nH]c1ncc(-c3cnc4c(c3)c(=O)c(C(=O)O)cn4C)c(N3CC4[C@H](CCN4CCCO)C3)c12 (stereo partly shown) [Example 1.260]
632 (≈ 1090 µM)	< 0.098	0.9	0.272			CNc1cc(F)c(F)c2c1[nH]c1ncc(-c3cnc4c(c3)c(=O)c(C(=O)O)cn4C)c(N3CCC(O)(CN(C)C)C3)c12 (stereo not shown) [Example 1.100]
570 (≈ 985 µM)	< 0.098	0.621	0.183			CNc1cc(F)c(F)c2c1[nH]c1ncc(-c3cnc4c(c3)c(=O)c(C(=O)O)cn4NC)c(N3C[C@@H](O)[C@@H](N(C)C)C3)c12 [Example 1.224]
125 (≈ 225 µM)	< 0.098	0.075	< 0.098			CNc1cc(F)cc2c1[nH]c1ncc(-c3cnc4c(c3)c(=O)c(C(=O)O)cn4NC)c(N3C[C@@H]4CCN(C)[C@@H]4C3)c12 [Example 3.17B]
113 (≈ 188 µM)	< 0.098	0.277	< 0.098			CNc1cc(F)c(F)c2c1[nH]c1ncc(-c3cnc4c(c3)c(=O)c(C(=O)O)cn4C)c(N3C[C@H]4CCC[C@@H](N(C)C)[C@H]4C3)c12 [Example 1.175]
99 (≈ 176 µM)	< 0.098	0.13	< 0.098			CNc1cc(F)c(F)c2c1[nH]c1ncc(-c3cnc4c(c3)c(=O)c(C(=O)O)cn4C)c(N3CC[C@@H](CN(C)C)C3)c12 [Example 1.255]
169 (≈ 280 µM)	< 0.098	0.269	< 0.098			CNc1cc(F)c(F)c2c1[nH]c1ncc(-c3cnc4c(c3)c(=O)c(C(=O)O)cn4C)c(N3CC[C@H]4CN(CCOC)CC43)c12 (stereo partly shown) [Example 1.96]
105 (≈ 177 µM)	< 0.098	0.094	< 0.098			CNc1cc(F)c(F)c2c1[nH]c1ncc(-c3cnc4c(c3)c(=O)c(C(=O)O)cn4NC)c(N3CCC(F)(CN(C)C)C3)c12 (stereo not shown) [Example 1.93]

Continued, molecule first:

SMILES	solubility thermodynamic [1] [µg/mL]	IC50 [2] [µM]	IC50 (A. baumannii (ATCC17978); [3]) [µM]	IC50 (S. aureus (ATCC29213)) [µM]	Lysa ([1]; pH 6.5) [µg/mL]	IC50 (A. baumannii (ATCC17978); A. baumannii ATCC17978) [µM]
CNc1cc(F)cc2c1[nH]c1ncc(-c3cnc4c(c3)c(=O)c(C(=O)O)cn4C)c(N3C[C@H](C)[C@@H](N(C)C)C3)c12 [Example 1.152]	49 (≈ 90.1 µM)	< 0.098	0.305	< 0.098		
CNc1cc(F)c(F)c2c1[nH]c1ncc(-c3cnc4c(c3)c(=O)c(C(=O)O)cn4C)c(N3C[C@H](C)[C@@H](N(C)C)C3)c12 [Example 1.160]	43 (≈ 76.6 µM)	< 0.098	0.131	< 0.098		
CNc1cc(Cl)c(F)c2c1[nH]c1ncc(-c3cnc4c(c3)c(=O)c(C(=O)O)cn4C)c(N3CC[C@H]4CN(C)CC43)c12 (stereo partly shown) [Example 1.267]	104 (≈ 181 µM)	< 0.098	0.072	< 0.098		
CNc1cc(F)cc2c1[nH]c1ncc(-c3cnc4c(c3)c(=O)c(C(=O)O)cn4NC)c(N3C[C@@H]4OCCN(C)[C@@H]4C3)c12 [Example 3.23B]	58 (≈ 101 µM)	< 0.098	0.789	< 0.098		
CNc1cc(F)cc2c1[nH]c1ncc(-c3cnc4c(c3)c(=O)c(C(=O)O)cn4NCC(F)(F)F)c(N3CCC[C@H]3CN(C)C)c12 [Example 1.153]	201 (≈ 321 µM)	< 0.098	0.388	0.372		
CNc1cc(F)c(F)c2c1[nH]c1ncc(-c3cnc4c(c3)c(=O)c(C(=O)O)cn4C)c(N3CC[C@H]4CN(C)C4C3)c12 (stereo partly shown) [Example 1.213]	26 (≈ 46.5 µM)	< 0.098	0.102	< 0.098		
CNc1cc(F)cc2c1[nH]c1ncc(-c3cnc4c(c3)c(=O)c(C(=O)O)cn4NC)c(N3CC4[C@H](CCCN4C)C3)c12 (stereo partly shown) [Example 1.111]	112 (≈ 196 µM)	< 0.098	0.115	< 0.098		
CNc1cc(F)c(F)c2c1[nH]c1ncc(-c3cnc4c(c3)c(=O)c(C(=O)O)cn4C)c(N3CC[C@@H]4C3CN4C)c12 (stereo partly shown) [Example 1.248]	222 (≈ 407 µM)	< 0.098	0.729	0.199		
CNc1cc(F)c(F)c2c1[nH]c1ncc(-c3cnc4c(c3)c(=O)c(C(=O)O)cn4C)c(N3CCC(C)(CN(C)C)C3)c12 (stereo not shown) [Example 1.101]	214 (≈ 372 µM)	< 0.098	0.15	< 0.098		
CCNn1cc(C(=O)O)c(=O)c2cc(-c3cnc4[nH]c5c(NC)cc(F)cc5c4c3N3CC[C@H]4CN(C)CC43)cnc21 (stereo partly shown) [Example 1.290]	247 (≈ 433 µM)	< 0.098	0.148	< 0.098		
CNc1cc(F)c(F)c2c1[nH]c1ncc(-c3cnc4c(c3)c(=O)c(C(=O)O)cn4NC)c(N3CCC4(CF)CN(C)CC34)c12 (stereo not shown) [Example 1.125]	262 (≈ 432 µM)	< 0.098	0.079	< 0.098		
CNc1cc(F)cc2c1[nH]c1ncc(-c3cnc4c(c3)c(=O)c(C(=O)O)cn4NC)c(N3C[C@H]4OCCN(C)[C@H]4C3)c12 [Example 3.23A]	49 (≈ 85.6 µM)	< 0.098	0.865	< 0.098		
CNc1cc(F)c(F)c2c1[nH]c1ncc(-c3cnc4c(c3)c(=O)c(C(=O)O)cn4C)c(N3CC[C@H](CN(C)C)C3)c12 [Example 1.256]	202 (≈ 360 µM)	< 0.098	0.219	< 0.098		
CNc1cc(F)c(F)c2c1[nH]c1ncc(-c3cnc4c(c3)c(=O)c(C(=O)O)cn4C)c(N3CCC4(F)CN(C)CC34)c12 (stereo not shown) [Example 1.120]	37 (≈ 64.1 µM)	< 0.098	0.169	< 0.098		
CNc1cc(F)c(F)c2c1[nH]c1ncc(-c3cnc4c(c3)c(=O)c(C(=O)O)cn4C)c(N3C[C@H](OC)[C@@H](N(C)C)C3)c12 [Example 1.170]		< 0.098		< 0.098	119	0.292
